Laboratory results from article PMC13053910, “Covalent Protein Inhibitors via Tyrosine and Tryptophan Conjugation with Cyclic Imine Mannich Electrophiles” (Angewandte Chemie (International Ed. in English), 2026).
Values belong to the compound of their own block, whether it stands above or below them.

Assays:
[1] = Reaction of cyclic imine Mannich or sulfur fluoride electrophiles with Ac-Tyr-NHMe (HPLC, LC/MS); assay type: physicochemical
Method: To identify an appropriate warhead, we synthesized or purchased a collection of cyclic imines and incubated them with N‐acetyl‐L‐tyrosine methylamide (Ac‐Tyr‐NHMe) in PBS pH 7 at 37 °C (Table 1). The reactivity was quantified by UV integration on HPLC with LC/MS confirmation of product identity (Figure S1). […] The hydrolysis kinetics of imine 2 were characterized at pD 6 and 7.5 by NMR (Figure S3). […] The Mannich reaction mechanism involves a charged iminium intermediate, and the reaction is frequently catalyzed by Bronsted acids.^[ [36], [37] ^]
Figure 2 Second‐order rate constants for select cyclic imines and a sulfonyl fluoride with aromatic nucleophiles. Reactions were conducted under pseudo‐first‐order conditions with an excess of one reactant, as indicated. The reduction in the concentration of the limiting reactant was measured at various time points by HPLC analysis.
Figure S2: Second order rate constant determination. Reaction of (A) imine 1 (5 mM) with N-Ac-Tyr-NHMe (100 mM) at 37 °C or (B) at R.T. (C) imine 2 (5 mM) with N-Ac-Tyr-NHMe (100 mM) at 37 °C (D) imine 1 (5 mM) with indole-3-butyrate (100 mM) at 37 °C (E) imine 1 (10 mM) with 1 mM 1H-pyrrole-1-propionate (F) iminium 5 (5 mM) with N-Ac-Tyr-NHMe (100 mM) at 37 °C (G) imine 4 (5 mM) with N-Ac-Tyr-NHMe (100 mM) at 37 °C. (H) imine 11 (5 mM) with N-Ac-Tyr-NHMe (100 mM) at 37 °C. (I) imine 13 (5 mM) with N-Ac-Tyr-NHMe (100 mM) at 37 °C.
5.1 General procedure for determination of second order rate constants N-acetyl-l-tyrosine methyl amide (Ac-Tyr-NHMe) (100 mM) was incubated with 5 mM imine 1 in PBS (pH 7) at 37 °C or R.T..

eDHFR L28Y = target: T1, eDHFR L28Y (Escherichia coli, UniProt P0ABQ4, L28Y); test: Covalent labeling of eDHFR L28Y by LC/MS; assay type: binding, E. coli
T1 construct: made in house; host or cells: E. coli (BL21 CodonPlus RIL or Rosetta 2), pET-28b(+)
Excerpt: (§1) Similarly, we prepared eDHFR tyrosine and tryptophan mutants at position 28 to assess labeling with TMP‐Im (Figure 3b). […] We conducted trypsin digestion of the labeled L28Y protein and localized the modification to the intended tyrosine by MS/MS fragmentation (Figure S9A). To assess selectivity over thiols, we tested labeling of the cysteine mutant. […] This labeling was reversed with GSH treatment, which is consistent with the reversibility of thioaminal formation (Figure S10).
(§2) Reactions with thiol mutant L28C were conducted in the presence of 5 mM glutathione and 5 mM TCEP. The observed mass differences of labeled and unlabeled proteins agree with the expected mass change of 428 Da.
Figure S10. Ligand directed labeling in the presence of thiols. […] B) TMP-Im (10 µM) was incubated with eDHFR L28C (10 µM) overnight in the absence (left and center) or presence of 5 mM GSH with 5 mM TCEP. For the center panel, after the labeling reaction, GSH (5 mM) was added and allowed to incubated overnight.

[2] = Stability of warheads and inhibitors (solid, PBS, hydrolysis); assay type: physicochemical; conditions: 24 h in aqueous buffer, then sodium cyanoborohydride, mass spectrometry
Method: (§3) To be suitable for chemical probe and therapeutic applications, the warhead should show good stability. In general, we found the iminolactam warheads to be quite stable. Compound 1 was stable as a solid at room temperature for over 3 months. […] After 24‐h in aqueous buffer, compounds were treated with sodium cyanoborohydride. […] The synthetic strategy of in situ formation of imines by periodate treatment was pursued to avoid concerns of warhead reactivity with the ligand itself to either the peptide backbone or the phenoxyphenyl aryl group. This appears to have been unnecessary, at least for the iminolactam warhead. […] The more reactive ester imine may be forming semi‐stable cyclized products with the amide backbone, which have been observed previously with peptide aldehydes.^[ [51], [52] ^] Due to these issues, we selected compound P1b for further characterization.

eDHFR L28C = target: T2, eDHFR L28C (Escherichia coli, UniProt P0ABQ4, L28C); test: Covalent labeling of eDHFR L28C by LC/MS; assay type: binding, E. coli
T2 construct: made in house; host or cells: E. coli (BL21 CodonPlus RIL or Rosetta 2), pET-28b(+)
Excerpt: as §1, §2
Figure S10. Ligand directed labeling in the presence of thiols. A) TMP-Im (10 µM) was incubated with eDHFR L28Y (10 µM) overnight at RT in the absence (left) or presence of 5 mM GSH with 5 mM TCEP. B) TMP-Im (10 µM) was incubated with eDHFR L28C (10 µM) overnight in the absence (left and center) or presence of 5 mM GSH with 5 mM TCEP. For the center panel, after the labeling reaction, GSH (5 mM) was added and allowed to incubated overnight.

eDHFR L28W = target: T3, eDHFR L28W (Escherichia coli, UniProt P0ABQ4, L28W); test: Covalent labeling of eDHFR L28W by LC/MS; assay type: binding, E. coli; conditions: 10 µM protein, 10 µM compound, overnight, 37 °C
T3 construct: made in house; host or cells: E. coli (BL21 CodonPlus RIL or Rosetta 2), pET-28b(+)
Excerpt: as §1, §2

eDHFR wt = target: T4, eDHFR wt (Escherichia coli, UniProt P0ABQ4); test: Covalent labeling of eDHFR wild type by LC/MS; assay type: binding, E. coli; conditions: 10 µM protein, 10 µM compound, overnight, 37 °C
T4 construct: made in house; host or cells: E. coli (BL21 CodonPlus RIL or Rosetta 2), pET-28b(+)

[3] = Stability in bovine serum-containing cell media (LC/MS); assay type: in vitro ADME; conditions: 20 µM, DMEM with 15% FBS, 24 h, 37 °C
Method: as §3
Figure S17. Stability of cyclic imine inhibitors to serum-containing cell culture media. […] The protein fraction was then precipitated with addition of 2 volumes of 1:1 EtOH:acetonitrile and overnight incubation at -20 °C. Samples were centrifuged 16,000 g for 30 minutes. Supernatants were filtered through a 0.5 micro spin filter and evaporated with a speed vacuum. The compounds were resuspended in PBS and analzyed by LC/MS. […] Overlaid spectra of UV at 215 nm are shown and are representative of 3 replicates.

[4] = electrophile 5 mM, N‐acetyl‐l‐tyrosine methyl amide 100 mM, PBS pH 7, 37 °C

reactivity (t1/2) ([1]; buffer, pH 7): 6.1 ± 0.2 h
Compound: 2-hydroxyquinoxaline [compound 4]

reactivity (t1/2) [1, 4]: 2.4 ± 0.1 h
Compound: O=S1(=O)N=Cc2ccccc21 [compound 11]

Further lines, the compound ahead of its results:

Compound: O=C1C=N[C@H]2CCCC[C@@H]2O1 [compound 2]
reactivity (t1/2) ([1]; electrophile 5 mM, Ac-Tyr-NHMe 100 mM, PBS pH 7, 37 °C, competing hydrolysis): ∼40 mins ^b)

Compound: O=C(O)c1ccc(OS(=O)(=O)F)cc1 [compound 14, reference compound]
reactivity (t1/2) [1, 4]: ∼48 h

Compound: COc1cc(Cc2cnc(N)nc2N)cc(OC)c1OCCCCN1CCN=CC1=O [TMP‐Im]
covalent labeling of eDHFR L28Y (eDHFR L28Y; 10 µM protein, 10 µM compound, overnight, 37 °C): covalent labeling
effect of GSH on labeling of eDHFR L28Y (eDHFR L28Y; presence of 5 mM GSH): only a slight reduction in reaction conversion
stability to long‐term incubation in PBS [2]: stability over the 24 h
labeling of eDHFR L28C cysteine mutant (eDHFR L28C; absence of additional thiols, TCEP as reductant): A small amount of labeling
labeling of eDHFR L28C cysteine mutant (eDHFR L28C; in the presence of 5 mM glutathione (GSH) and 5 mM TCEP): no detectable labeled protein
covalent labeling of eDHFR L28W (eDHFR L28W): covalent labeling
covalent labeling of eDHFR wild type (eDHFR wt): no labeling
stability in bovine serum‐containing cell media [3]: minimal loss of compounds to the precipitated protein fraction or degradation
stability in bovine serum‐containing cell media ([3]; listed as TMP-Im): no degradation or loss to the protein fraction
